Reference: US8178575B2, “Derivatives of azabicyclo octane, the method of making them and the uses thereof as inhibitors of dipeptidyl peptidase IV” (Shanghai Hengrui Pharmaceutical Co., Ltd., priority 2007, dated 2012)
Structures can show the parent of a compound that is named as a salt.

How the values were obtained:
normal ICR mice = experiment: Oral glucose tolerance test in normal ICR mice; format: in vivo; details: male ICR mice, 30 minutes after 2.5 g/kg glucose
Method: Normal male ICR mice were randomly grouped according to weights, 6 mice in each group. The groups included a blank control group as well as different doses of the treatment groups as follows:
Animals in each group had been fasted for 6 hours, and then pretreated with compounds or double distilled water by gavage respectively in single administration. 30 minutes later, animals were administered 2.5 g/kg glucose by gavage. Before administration and after administration of glucose at 30, 60 and 120 minuets, blood was taken to determine serum glucose levels.
Serum glucose is determined by glucose kit. 250 μl working enzyme solution was taken, and then 5 μl serum was added to the solution. A blank tube (5 μl double distilled water was added) and a standard tube (5 μl glucose standard solution was added) were established simultaneously, shaking respectively, and in 37° C. water bath for 20 minutes. The blank tube was tuned with, and then calorimetric assay was determined at OD505 nm. Serum glucose concentration (BG, mmol/l)=ODsample tube/ODstandard tube×5.55 Data Processing and Statistical Analysis: • 1. Mean±SD and Student-t test were used in data statistical analysis. • 2. The percentage of blood glucose decline in 30 minutes after sugar administration as well as the area under the curve (AUC) was calculated.

[1] = test system: type II diabetes KKAy mice; experiment: Oral glucose tolerance test in type II diabetes KKAy mice; format: in vivo
Method: Normal KKAy mice had been fasted for 6 hours, and then were randomly grouped according to weights and fasting blood glucose, 5 mice in each group. The groups included a blank control group as well as different doses of the treatment groups as follows:
30 minutes later, animals were administered 2.5 g/kg (female KKAy mice) or 1.5 g/kg (male KKAy mice) glucose by gavage. After administration of glucose at 30, 60 and 120 minuets, serum glucose levels were determined by Glucometer.
• 3. Mean±SD and Student-t test or Anova were used in data statistical analysis. • 4.

FAP = target: T1, FAP (Homo sapiens, UniProt Q12884); experiment: Selective activity determination of DPPIV inhibitors, fluorescence substrate; format: biochemical
T1 sequence (Q12884 1-760): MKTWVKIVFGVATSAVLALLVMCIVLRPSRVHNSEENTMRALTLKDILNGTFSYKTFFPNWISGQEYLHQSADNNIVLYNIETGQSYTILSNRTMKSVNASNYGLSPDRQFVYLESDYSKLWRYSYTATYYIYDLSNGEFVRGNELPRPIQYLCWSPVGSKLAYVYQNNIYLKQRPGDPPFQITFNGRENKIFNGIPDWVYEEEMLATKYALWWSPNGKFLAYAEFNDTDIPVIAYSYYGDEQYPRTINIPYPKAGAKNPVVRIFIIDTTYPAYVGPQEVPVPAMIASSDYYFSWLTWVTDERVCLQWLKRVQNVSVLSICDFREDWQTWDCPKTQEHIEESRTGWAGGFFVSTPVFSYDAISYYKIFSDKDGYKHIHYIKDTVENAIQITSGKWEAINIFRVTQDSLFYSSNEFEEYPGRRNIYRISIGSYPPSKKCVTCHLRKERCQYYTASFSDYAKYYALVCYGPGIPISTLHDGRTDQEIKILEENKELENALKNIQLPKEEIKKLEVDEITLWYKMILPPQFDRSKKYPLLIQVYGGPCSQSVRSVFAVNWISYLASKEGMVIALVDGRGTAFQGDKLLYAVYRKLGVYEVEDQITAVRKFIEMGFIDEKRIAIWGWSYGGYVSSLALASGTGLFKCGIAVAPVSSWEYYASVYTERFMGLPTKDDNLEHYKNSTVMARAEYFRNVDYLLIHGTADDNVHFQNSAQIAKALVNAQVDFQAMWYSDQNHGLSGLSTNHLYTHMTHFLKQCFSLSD
Description: (§1) It can cut off the first two amino acids in many of the N-peptide to change or lose its biological activity. Gene knockout animal and human experiments indicate that reducing DPPIV activity effectively and specifically in vivo can improve blood insulin content and lower blood sugar levels, so as to improve the symptoms of diabetes effectively.
(§2) By using the insect expression system, the recombinant proteins of DPPIV, DPP8, DPP9 and QPP had been obtained. The activities of the […] enzymes were detected by fluorescence Substrate. The inhibitory effects of compounds were evaluated by the effects of different compounds on inhibiting enzyme activities. Positive reference compound was LAF237.

QPP = target: T2, QPP (Homo sapiens, UniProt Q9UHL4); experiment: Selective activity determination of DPPIV inhibitors, recombinant enzyme, fluorescence substrate; format: biochemical; details: recombinant protein from insect expression system
T2 construct: made in house; host or cells: insect expression system
Description: as §1, §2

DPPIV = target: T3, DPPIV (Homo sapiens, UniProt P27487); experiment: as above; format: biochemical
T3 construct: made in house; host or cells: insect expression system
Description: as §1, §2

[2] = Test 1, high dose (10 mg/kg by gavage)
[3] = Test 1, low dose (1 mg/kg by gavage)
[4] = Test 1, middle dose (3 mg/kg by gavage)
[5] = Test 2, high dose (10 mg/kg by gavage)
[6] = Test 2, low dose (1 mg/kg by gavage)
[7] = Test 2, middle dose (3 mg/kg by gavage)
[8] = female KKAy mice, 10 mg/kg by gavage, 30 minutes after 2.5 g/kg glucose
[9] = male KKAy mice, 10 mg/kg by gavage, 30 minutes after 1.5 g/kg glucose
[10] = male KKAy mice, 30 mg/kg by gavage, 30 minutes after 1.5 g/kg glucose

T3 sequence (P27487 whole entry): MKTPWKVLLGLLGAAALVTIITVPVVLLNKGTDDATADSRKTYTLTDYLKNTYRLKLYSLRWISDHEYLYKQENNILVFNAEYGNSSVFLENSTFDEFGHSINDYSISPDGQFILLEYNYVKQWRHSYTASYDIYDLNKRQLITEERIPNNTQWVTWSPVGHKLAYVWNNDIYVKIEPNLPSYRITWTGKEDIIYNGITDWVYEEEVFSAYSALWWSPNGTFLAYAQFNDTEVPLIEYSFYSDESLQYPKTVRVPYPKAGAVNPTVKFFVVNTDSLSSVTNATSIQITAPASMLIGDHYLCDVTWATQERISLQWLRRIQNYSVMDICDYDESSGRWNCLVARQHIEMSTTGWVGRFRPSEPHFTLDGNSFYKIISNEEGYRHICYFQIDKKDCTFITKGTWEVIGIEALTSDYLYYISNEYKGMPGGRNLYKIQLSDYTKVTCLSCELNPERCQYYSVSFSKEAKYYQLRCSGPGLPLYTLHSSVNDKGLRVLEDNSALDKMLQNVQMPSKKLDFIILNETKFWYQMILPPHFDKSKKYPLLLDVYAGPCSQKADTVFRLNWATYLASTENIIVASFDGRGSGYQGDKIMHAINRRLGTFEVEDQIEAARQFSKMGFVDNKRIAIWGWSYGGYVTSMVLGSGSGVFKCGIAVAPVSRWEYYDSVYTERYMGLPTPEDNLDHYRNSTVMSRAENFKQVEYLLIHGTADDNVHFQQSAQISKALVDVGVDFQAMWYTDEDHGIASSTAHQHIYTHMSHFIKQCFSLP

| Compound | percentage of blood glucose decreased vs control group (normal ICR mice; [2]) | percentage of blood glucose decreased vs control group (normal ICR mice; [3]) | percentage of blood glucose decreased vs control group (normal ICR mice; [4]) | percentage of blood glucose decreased vs control group (normal ICR mice; [5]) | percentage of blood glucose decreased vs control group (normal ICR mice; [6]) | percentage of blood glucose decreased vs control group (normal ICR mice; [7]) | percentage of blood glucose decreased vs control group ([1]; female KKAy mice, 3 mg/kg by gavage, 30 minutes after 2.5 g/kg glucose) | percentage of blood glucose decreased vs control group [1, 8] | percentage of blood glucose decreased vs control group [1, 9] | percentage of blood glucose decreased vs control group [1, 10] | IC50 (FAP) | IC50 (QPP) | IC50 (DPPIV) |
| --- | --- | --- | --- | --- | --- | --- | --- | --- | --- | --- | --- | --- | --- |
| CN(C)C(=O)N1C[C@H]2C[C@@H](NCC(=O)N3CCC[C@H]3C#N)C[C@H]2C1 (relative stereo) [Example 1, cis-5-[2-(2-Cyano-pyrrolidin-1-yl)-2-oxo-ethylamino]-hexahydro-cyclopenta[c]pyrrole-2-carboxylic acid dimethylamide hydrochloride] | 31.85% | 19.16% | 22.85% | 32.05% | 26.10% | 30.24% | 40.63% | 24.68% | 16.22% | 17.15% | – | – | – |
| COC(=O)N1C[C@H]2C[C@@H](NCC(=O)N3CCC[C@H]3C#N)C[C@H]2C1 (relative stereo) [Example 2, cis-5-[2-(2-Cyano-pyrrolidin-1-yl)-2-oxo-ethylamino]-hexahydro-cyclopenta[c]pyrrole-2-carboxylic acid methyl ester hydrochloride] | 26.93% | 25.54% | 25.92% | 27.75% | 24.51% | 26.96% | – | 21.55% | 13.79% | 12.23% | 0.476 ± 0.112 µM | > 56 µM | 0.098 ± 0.0364 µM |
